Reference: US11944622B2 (Annapurna Bio, Inc., priority 2018, dated 2024)

These molecules were tested against T1, APJ Receptor (Homo sapiens, UniProt P35414) (assay: APJ cAMP assay (DiscoverX enzyme fragment complementation; inhibition of forskolin-stimulated cAMP)). Conditions: CHO-K1 cell line stably expressing the APJ Receptor; EC80 forskolin; 30 minutes at 37° C.; read-out: Potency Range (APJ cAMP EC50).
T1 sequence (P35414 1-380): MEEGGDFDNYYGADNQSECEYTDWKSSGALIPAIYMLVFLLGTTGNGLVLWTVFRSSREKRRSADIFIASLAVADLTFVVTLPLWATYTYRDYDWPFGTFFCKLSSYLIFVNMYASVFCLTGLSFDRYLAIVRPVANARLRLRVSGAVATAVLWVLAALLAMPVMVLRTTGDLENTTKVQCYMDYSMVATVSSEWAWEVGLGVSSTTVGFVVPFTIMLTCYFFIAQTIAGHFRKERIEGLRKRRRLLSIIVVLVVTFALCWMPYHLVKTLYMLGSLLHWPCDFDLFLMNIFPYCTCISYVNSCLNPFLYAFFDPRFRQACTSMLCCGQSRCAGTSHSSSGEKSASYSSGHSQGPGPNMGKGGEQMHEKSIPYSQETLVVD
Type: cell-based
Description: Activation of APJ receptor is known to inhibit forskolin-stimulated cyclic AMP (cAMP) production in cells in a pertussis toxin-sensitive manner which indicates primary coupling to the GαI subunit of the G protein heterotrimeric complex. In addition to signaling through G protein and inhibition of cAMP, APJ receptor activation also results in β-arrestin recruitment, receptor internalization and activation of extracellular-regulated kinases (ERKs).
In order to optimize functional activity directed toward Gi coupling we utilized a CHO-K 1 cell line developed by DiscoverX stably expressing the APJ Receptor. Cells expressing APJR receptor were plated in a 384-well microtiter plates and incubated overnight at 37° C. with 5% CO2 to allow the cells to attach and grow. Media was then aspirated from the cells and replaced with 15 uL 2:1 Hanks Balanced Salt Solution (HBSS)/10 mM Hepes:cAMP XS+Ab reagent. Five microliters (5 uL) of previously generated compound sample stocks at 4× final concentration in assay buffer containing 4× EC80 forskolin were then added to the cells and allowed to incubate at 37° C. for 30 minutes.
After incubation the assay signal was generated using a technology termed enzyme fragment complementation (EFC). In EFC the enzyme B-galactosidase is split into two complementary portions (EA and ED). The fragment ED is fused to cAMP and in the assay format competes with endogenous cAMP for binding to a cAMP specific antibody. Activated B-Gal is formed when exogenous EA fragment binds to free ED-cAMP (not bound to cAMP specific antibody). Activated enzyme levels are detected through conversion of B-gal chemiluminescent substrate which generates a detectable luminescence signal and read on standard microtiter plate.
The methodology for detection of cAMP using EFC requires incubation with 20 uL of cAMP XS+ED/CL lysis cocktail for one hour followed by incubation with 20 uL cAMP XS+EA reagent for three hours at room temperature. Microplates were read following signal generation with a PerkinElmer Envision instrument utilizing chemiluminescent signal detection.
Compound activity was analyzed using CBIS data analysis suite (ChemInnovation, CA). Percentage activity was calculated using the following formula: % Activity=100%×(1−(mean RLU of test sample−mean RLU of Max control)/(mean RLU of vehicle control−mean RLU of Max control))

Structure (SMILES) | EC50 [nM]
CCOc1cccc(-c2nc3ncc(NS(=O)(=O)Cc4ncccn4)nc3n2-c2c(OC)cccc2OC)n1 [Example 28, N-(1-(2,6-dimethoxyphenyl)-2-(6-ethoxypyridin-2-yl)-1H-imidazo[4,5-b]pyrazin-6-yl)-1-(pyrimidin-2-yl)methanesulfonamide] | < 1
CCOc1cccc(-c2nc3ncc(NS(=O)(=O)CCC4CC4)nc3n2-c2c(OC)cccc2OC)n1 [Example 29, 2-cyclopropyl-N-(1-(2,6-dimethoxyphenyl)-2-(6-ethoxypyridin-2-yl)-1H-imidazo[4,5-b]pyrazin-6-yl)ethanesulfonamide] | < 1
CCOc1cccc(-c2nc3ncc(NS(=O)(=O)C4COC4)nc3n2-c2c(OC)cccc2OC)n1 [Example 30, N-(1-(2,6-dimethoxyphenyl)-2-(6-ethoxypyridin-2-yl)-1H-imidazo[4,5-b]pyrazin-6-yl)oxetane-3-sulfonamide] | 1 to 100
CCOc1cccc(-c2nc3ncc(NS(=O)(=O)C4CCC4)nc3n2-c2c(OC)cccc2OC)n1 [Example 31, N-(1-(2,6-dimethoxyphenyl)-2-(6-ethoxypyridin-2-yl)-1H-imidazo[4,5-b]pyrazin-6-yl)cyclobutanesulfonamide] | 1 to 100
CCOc1cccc(-c2nc3ncc(N(C)S(C)(=O)=O)nc3n2-c2c(OC)cccc2OC)n1 [Example 32, N-(1-(2,6-dimethoxyphenyl)-2-(6-ethoxypyridin-2-yl)-1H-imidazo[4,5-b]pyrazin-6-yl)-N-methylmethanesulfonamide] | 100 to 10000
CCOc1cccc(-c2nc3ncc(NS(=O)(=O)[C@H]4C[C@@H](O)C4)nc3n2-c2c(OC)cccc2OC)n1 [Example 33, cis-N-(1-(2,6-dimethoxyphenyl)-2-(6-ethoxypyridin-2-yl)-1H-imidazo[4,5-b]pyrazin-6-yl)-3-hydroxycyclobutane-1-sulfonamide] | 1 to 100
CCOc1cccc(-c2nc3ncc(NS(=O)(=O)[C@H]4C[C@H](O)C4)nc3n2-c2c(OC)cccc2OC)n1 [Example 34, trans-N-(1-(2,6-dimethoxyphenyl)-2-(6-ethoxypyridin-2-yl)-1H-imidazo[4,5-b]pyrazin-6-yl)-3-hydroxycyclobutane-1-sulfonamide] | 1 to 100
CCOc1cccc(-c2nc3ncc(NS(=O)(=O)Cc4cncnc4)nc3n2-c2c(OC)cccc2OC)n1 [Example 35, N-(1-(2,6-dimethoxyphenyl)-2-(6-ethoxypyridin-2-yl)-1H-imidazo[4,5-b]pyrazin-6-yl)-1-(pyrimidin-5-yl)methanesulfonamide] | 1 to 100
CCOc1cccc(-c2nc3ncc(NS(=O)(=O)C4CCOCC4)nc3n2-c2c(OC)cccc2OC)n1 [Example 36, N-(1-(2,6-dimethoxyphenyl)-2-(6-ethoxypyridin-2-yl)-1H-imidazo[4,5-b]pyrazin-6-yl)tetrahydro-2H-pyran-4-sulfonamide] | 1 to 100
CCOc1cccc(-c2nc3ncc(NS(=O)(=O)N4CCOCC4)nc3n2-c2c(OC)cccc2OC)n1 [Example 37, N-(1-(2,6-dimethoxyphenyl)-2-(6-ethoxypyridin-2-yl)-1H-imidazo[4,5-b]pyrazin-6-yl)morpholine-4-sulfonamide] | < 1
CCOc1cccc(-c2nc3ncc(NS(=O)(=O)CC4CCNCC4)nc3n2-c2c(OC)cccc2OC)n1 [Example 38, N-(1-(2,6-dimethoxyphenyl)-2-(6-ethoxypyridin-2-yl)-1H-imidazo[4,5-b]pyrazin-6-yl)-1-(piperidin-4-yl)methanesulfonamide] | 1 to 100
CCOc1cccc(-c2nc3ncc(NS(=O)(=O)[C@H]4CC[C@H](O)CC4)nc3n2-c2c(OC)cccc2OC)n1 [Example 39, trans-N-(1-(2,6-dimethoxyphenyl)-2-(6-ethoxypyridin-2-yl)-1H-imidazo[4,5-b]pyrazin-6-yl)-4-hydroxycyclohexane-1-sulfonamide] | < 1
CCOc1cccc(-c2nc3ncc(NS(=O)(=O)[C@H]4CC[C@@H](O)CC4)nc3n2-c2c(OC)cccc2OC)n1 [Example 40, cis-N-(1-(2,6-dimethoxyphenyl)-2-(6-ethoxypyridin-2-yl)-1H-imidazo[4,5-b]pyrazin-6-yl)-4-hydroxycyclohexane-1-sulfonamide] | 1 to 100
CCOc1cccc(-c2nc3ncc(NS(=O)(=O)c4ncccn4)nc3n2-c2c(OC)cccc2OC)n1 [Example 41, N-(1-(2,6-dimethoxyphenyl)-2-(6-ethoxypyridin-2-yl)-1H-imidazo[4,5-b]pyrazin-6-yl)pyrimidine-2-sulfonamide] | 1 to 100
CCOc1cccc(-c2nc3ncc(NS(=O)(=O)N4CCC(O)CC4)nc3n2-c2c(OC)cccc2OC)n1 [Example 42, N-(1-(2,6-dimethoxyphenyl)-2-(6-ethoxypyridin-2-yl)-1H-imidazo[4,5-b]pyrazin-6-yl)-4-hydroxypiperidine-1-sulfonamide] | 1 to 100

Second part, the molecule after the results:

EC50 [nM] | Structure (SMILES)
1 to 100 | CCOc1cccc(-c2nc3nc(NS(C)(=O)=O)cnc3n2-c2c(OC)cccc2OC)n1 [Example 43, N-(1-(2,6-dimethoxyphenyl)-2-(6-ethoxypyridin-2-yl)-1H-imidazo[4,5-b]pyrazin-5-yl)methanesulfonamide]
< 1 | CCOc1cccc(-c2nc3nc(NS(=O)(=O)CCC4CC4)cnc3n2-c2c(OC)cccc2OC)n1 [Example 44]
< 1 | CCOc1cccc(-c2nc3nc(NS(=O)(=O)CC4CC4)cnc3n2-c2c(OC)cccc2OC)n1 [Example 45, 1-cyclopropyl-N-(1-(2,6-dimethoxyphenyl)-2-(6-ethoxypyridin-2-yl)-1H-imidazo[4,5-b]pyrazin-5-yl)methanesulfonamide]
< 1 | CCOc1cccc(-c2nc3nc(NCc4ccc(OC)cc4)cnc3n2-c2c(OC)cccc2OC)n1 [Example 46, 1-(2,6-dimethoxyphenyl)-2-(6-ethoxypyridin-2-yl)-N-(4-methoxybenzyl)-1H-imidazo[4,5-b]pyrazin-5-amine]
100 to 10000 | CCOc1cccc(-c2nc3ncc(O)nc3n2-c2c(OC)cccc2C(F)(F)F)n1 [Example 47, 2-(6-ethoxypyridin-2-yl)-1-(2-methoxy-6-(trifluoromethyl)phenyl)-1H-imidazo[4,5-b]pyrazin-6-ol]
1 to 100 | CCOc1cccc(-c2nc3ncc(NS(C)(=O)=O)nc3n2-c2c(OC)cccc2C(F)(F)F)n1 [Example 48, N-(2-(6-ethoxypyridin-2-yl)-1-(2-methoxy-6-(trifluoromethyl)phenyl)-1H-imidazo[4,5-b]pyrazin-6-yl)methanesulfonamide]
100 to 10000 | CCOc1cccc(-c2nc3ncc(NS(C)(=O)=O)nc3n2-c2ncccc2OC)n1 [Example 49, N-(2-(6-ethoxypyridin-2-yl)-1-(3-methoxypyridin-2-yl)-1H-imidazo[4,5-b]pyrazin-6-yl)methanesulfonamide]
1 to 100 | CCOc1cccc(-c2nc3ncc(NS(C)(=O)=O)nc3n2-c2c(F)cccc2OC)n1 [Example 50]
1 to 100 | COc1cccc(-c2nc3ncc(NS(C)(=O)=O)nc3n2-c2c(OC)cccc2OC)n1 [Example 51, N-(1-(2,6-dimethoxyphenyl)-2-(6-methoxypyridin-2-yl)-1H-imidazo[4,5-b]pyrazin-6-yl)methanesulfonamide]
1 to 100 | COc1cccc(-c2nc3ncc(NS(=O)(=O)c4ccccn4)nc3n2-c2c(OC)cccc2OC)n1 [Example 52, N-(1-(2,6-dimethoxyphenyl)-2-(6-methoxypyridin-2-yl)-1H-imidazo[4,5-b]pyrazin-6-yl)pyridine-2-sulfonamide]
1 to 100 | COc1cccc(-c2nc3ncc(NS(=O)(=O)c4ncccn4)nc3n2-c2c(OC)cccc2OC)n1 [Example 53, N-(1-(2,6-dimethoxyphenyl)-2-(6-methoxypyridin-2-yl)-1H-imidazo[4,5-b]pyrazin-6-yl)pyrimidine-2-sulfonamide]
1 to 100 | COc1cccc(OC)c1-n1c(-c2cccc(OC3CC3)n2)nc2ncc(NS(C)(=O)=O)nc21 [Example 54, N-(2-(6-cyclopropoxypyridin-2-yl)-1-(2,6-dimethoxyphenyl)-1H-imidazo[4,5-b]pyrazin-6-yl)methanesulfonamide]
